The text below walks through data of the Kinase Knowledgebase extract (Sharma et al. 2016).

pIC50: −log10 of the molar value. Bounds are passed on as bounds.

The target of this assay is CDK2 (human) (UniProt P24941). Kind of assay: Enzyme Assay.

Molecule `O=C(Nc1ccc(F)cc1F)Nc1c[nH]nc1-c1nc2cc(CN3CCOCC3)ccc2[nH]1` gave a negative logarithm of the IC50 (pIC50) of more than 6.00.

Molecule `COc1cc2nc(-c3n[nH]cc3NC(=O)c3cc(Cl)cc(N4CCN(C)CC4)c3)[nH]c2cc1OC` gave a pIC50 of more than 6.00.

Molecule `COc1cc2nc(-c3n[nH]cc3NC(=O)c3ccoc3CN(C)C)[nH]c2cc1OC` had a negative-log IC50 (pIC50) of more than 6.00.

As for `O=C(CC1CC1)Nc1c[nH]nc1-c1nc2cc(CN3CCOCC3)ccc2[nH]1`, the pIC50 was more than 6.00.

Regarding `COc1ccc(Cl)cc1C(=O)Nc1c[nH]nc1-c1nc2cc(CN3CCN(C)CC3)ccc2[nH]1`, the pIC50 was more than 6.00.

On to `COc1ccc(C#N)cc1C(=O)Nc1c[nH]nc1-c1nc2cc(CN3CCOCC3)ccc2[nH]1`, for which the pIC50 was more than 6.00.

Molecule `O=C(Nc1c[nH]nc1-c1nc2cc(CN3CCOCC3)ccc2[nH]1)NN1CCOCC1` had a pIC50 of more than 6.00.

The molecule `O=C(Nc1c[nH]nc1-c1nc2cc(CN3CCOCC3)ccc2[nH]1)Nc1c(F)cc(F)cc1F` had a pIC50 of more than 6.00.

As to `O=C(Nc1cc(F)ccc1F)Nc1c[nH]nc1-c1nc2cc(CN3CCOCC3)ccc2[nH]1`, the negative-log IC50 (pIC50) is more than 6.00.

In the case of `O=C(Nc1c[nH]nc1-c1nc2cc(CN3CCOCC3)ccc2[nH]1)C1CCCO1` (configuration not stated), the pIC50 is more than 6.00.

`O=C(Nc1c[nH]nc1-c1nc2cc(CN3CCOCC3)ccc2[nH]1)NN1CCCC1` had a pIC50 of more than 6.00.

Molecule `CN(C)NC(=O)Nc1c[nH]nc1-c1nc2cc(CN3CCOCC3)ccc2[nH]1` showed a pIC50 of more than 6.00.
